# Data as given in patent publication US9688736B2, “Compound for treatment of severe hypoglycemia” (Eli Lilly and Company, priority 2013, dated 2017).
# Where two headings read alike, the source gives them in different places. Square brackets hold non-standard residues; d marks the D form. Peptide text beside a SMILES is read from it. Aib = CC(C)(N)C(=O)O
# Legend:
# male C57BL6 mice = test: Effects of compound on blood glucose levels in C57/B16 male mice; format: in vivo; settings: for Blood glucose levels after dosing: mean ± SEM, n=4
# Experimental: To determine the effects of the compound of SEQ ID NO: 2 on blood glucose levels, the compound is administered to C57/B 16 mice. Three month old male C57BL6 mice (Harlan Laboratories) are used Animals are individually housed in a temperature-controlled (24° C.) facility with a 12 hour light/dark cycle, and have free access to food and water. After 1 week acclimation to the facility, mice are randomized to treatment groups (n=4/group). Test compound is formulated in Buffer 2 (see Physical stability test using Thioflavin T binding assay). On the morning of test, food is removed at 08:00 AM. Two hours after food is removed, the test compound is given subcutaneously at 0, 1, 3 or 10 μg/kg doses. Blood glucose is measured at time 0, 15, 30, 60 and 120 minutes after test compound administration with an ACCU-CHECK® (Roche Diagnostics) glucometer. […] Results are expressed as mean ±standard error mean (SEM) of 4 mice per group.
# Blood glucose levels at 10 μg/kg of compound of SEQ ID NO: 2 is taken as the maximum value.
# [1] = molecular target: T1, human glucagon receptor (hGR) (Homo sapiens, UniProt P47871); test: Human glucagon receptor binding assay (SPA); settings: 293HEK membranes, 125I-labelled glucagon
# T1 construct: expressed in transfected cells; host or cells: 293HEK (crude plasma membranes)
# Experimental: Plates are sealed, mixed end over end, and read with a MicroBeta® scintillation counter after 12 hours of settling time at room temperature.
# [2] = Physical stability test using Thioflavin T binding assay (fibrillation); format: physicochemical; settings: 25° C.; for Thioflavin T fluorescence: 1 mg/mL, stirred 300 rpm
# Experimental: Fibrillation is a common problem when glucagon is formulated in aqueous solution. To assess the level of fibrillation of the compound of the present invention, a Thioflavin T binding assay is performed.
# All samples are mechanically stressed at 25° C. in a magnetic stir plate set at 300 rpm. […] Raw data is collected with Softmax Pro 5.4.1 (Molecular Devices) and imported to Excel.
# [3] = format: physicochemical
# Experimental: The compound of SEQ ID NO: 2 is dissolved in 20 mM Tris-HCl/H2O, pH 8 to a 1 mg/mL concentration (peptide content), and filtered through a 0.22 micron filter (Millex, SLGV004SL). Solution is transferred to three vials: one for 4° C.; one for 30° C. and one for 40° C. […]. Samples are visually assessed at different time points for turbidity and phase separation.
# [4] = molecular target: T1, human glucagon receptor (hGR); test: Human glucagon receptor stimulated cAMP functional assay; format: cell-based; settings: hGR-HEK293 cells, relative EC50, HTRF cAMP
# Experimental: Cells are stimulated with glucagon, buffer controls, or Test samples, and the cAMP generated within the cell is quantitated using the CisBio cAMP Dynamic 2 HTRF Assay Kit (62AM4PEC). Briefly, cAMP levels within the cell are detected by binding to the cAMP-d2 capture antibody in the presence of cell lysis buffer. A second detection antibody provided in the kit, anti-cAMP Cryptate, is added to create a competitive sandwich assay. When the detection antibody complex formed there is an increase in the signal that is measured on a Perkin-Elmer Envision® instrument.
# The hGR-HEK293 cells are harvested from sub-confluent tissue culture dishes with Enzyme-Free Cell Dissociation Solution (Specialty Media 5-004-B). The cells are pelleted at 100× g at room temperature for 5 minutes then washed twice with phosphate buffered saline (PBS). […] The cells are then pelleted at 100× g at room temperature for 5 minutes. […] Test samples are prepared as 2 mM stocks in DMSO and frozen at −20° C. until needed. […] The reaction is stopped by addition of 20 μL of the cAMP-d2-capture antibody (CisBio) diluted into the CisBio lysis buffer then gently mixed in [sequence] shaker. […] The lysed cell and antibody mixtures are read after 1 hour at room temperature using the Perkin-Elmer Envision®. […]
# [5] = molecular target: T2, human glucagon-like peptide 1 receptor (hGLP-1R) (Homo sapiens, UniProt P43220); test: Glucagon-like-peptide 1 receptor binding assay (SPA); settings: 293HEK membranes, 125I-labelled GLP-1 amide
# T2 construct: expressed in transfected cells; host or cells: 293HEK suspension cells (crude plasma membranes)
# human GIP-R = molecular target: T3, human GIP-R (Homo sapiens, UniProt P48546); test: Glucose-dependent insulinotropic peptide receptor binding assay (SPA); settings: CHO-S membranes, radioiodinated GIP
# T3 construct: expressed in transfected cells; host or cells: CHO-S suspension cells (crude plasma membranes)
# T3 sequence (P48546 22-466): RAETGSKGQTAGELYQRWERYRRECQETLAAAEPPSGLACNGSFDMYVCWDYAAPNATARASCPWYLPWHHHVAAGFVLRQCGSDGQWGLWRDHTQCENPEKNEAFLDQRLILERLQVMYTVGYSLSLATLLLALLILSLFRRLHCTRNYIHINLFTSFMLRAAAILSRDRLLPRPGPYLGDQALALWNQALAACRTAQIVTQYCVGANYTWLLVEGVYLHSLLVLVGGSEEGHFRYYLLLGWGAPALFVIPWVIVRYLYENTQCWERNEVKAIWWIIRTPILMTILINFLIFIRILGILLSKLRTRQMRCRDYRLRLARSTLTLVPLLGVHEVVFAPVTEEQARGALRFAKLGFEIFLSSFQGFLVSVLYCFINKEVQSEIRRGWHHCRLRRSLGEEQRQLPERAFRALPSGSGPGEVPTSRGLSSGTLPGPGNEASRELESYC
# [6] = molecular target: T4, mouse glucagon receptor (mGR) (Mus musculus, UniProt Q61606); test: Mouse glucagon receptor binding assay (SPA); settings: 293HEK membranes, 125I-labelled glucagon
# T4 construct: expressed in transfected cells; host or cells: 293HEK cells in suspension culture (crude plasma membranes)
# [7] = pH 8, 120 hours, mechanical stress
# T1 sequence (P47871 26-477): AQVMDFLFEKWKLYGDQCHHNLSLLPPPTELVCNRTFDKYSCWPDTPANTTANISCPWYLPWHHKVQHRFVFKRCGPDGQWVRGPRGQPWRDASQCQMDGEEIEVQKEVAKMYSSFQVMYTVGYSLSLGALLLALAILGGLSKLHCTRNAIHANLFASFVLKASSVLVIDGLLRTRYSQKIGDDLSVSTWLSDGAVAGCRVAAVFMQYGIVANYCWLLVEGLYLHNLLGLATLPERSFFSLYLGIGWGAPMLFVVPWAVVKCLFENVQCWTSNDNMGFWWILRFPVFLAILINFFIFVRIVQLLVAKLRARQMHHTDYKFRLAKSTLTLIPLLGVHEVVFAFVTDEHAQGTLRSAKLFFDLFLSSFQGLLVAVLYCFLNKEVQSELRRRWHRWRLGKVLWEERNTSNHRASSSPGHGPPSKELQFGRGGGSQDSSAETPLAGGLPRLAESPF
# T4 sequence (Q61606 27-485): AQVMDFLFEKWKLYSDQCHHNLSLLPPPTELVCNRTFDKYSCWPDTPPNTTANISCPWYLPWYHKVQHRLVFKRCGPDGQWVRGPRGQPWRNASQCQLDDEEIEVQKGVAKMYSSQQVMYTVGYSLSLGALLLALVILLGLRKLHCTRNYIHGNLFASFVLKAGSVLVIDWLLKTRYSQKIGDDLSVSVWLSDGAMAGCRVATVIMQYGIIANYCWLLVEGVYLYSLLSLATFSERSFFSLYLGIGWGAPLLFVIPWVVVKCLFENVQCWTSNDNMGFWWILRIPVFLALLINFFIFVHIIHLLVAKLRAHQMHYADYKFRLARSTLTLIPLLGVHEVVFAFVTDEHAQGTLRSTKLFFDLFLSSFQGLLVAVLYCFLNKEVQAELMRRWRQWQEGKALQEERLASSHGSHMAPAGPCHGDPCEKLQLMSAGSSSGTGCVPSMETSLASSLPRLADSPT
# T2 sequence (P43220 24-463): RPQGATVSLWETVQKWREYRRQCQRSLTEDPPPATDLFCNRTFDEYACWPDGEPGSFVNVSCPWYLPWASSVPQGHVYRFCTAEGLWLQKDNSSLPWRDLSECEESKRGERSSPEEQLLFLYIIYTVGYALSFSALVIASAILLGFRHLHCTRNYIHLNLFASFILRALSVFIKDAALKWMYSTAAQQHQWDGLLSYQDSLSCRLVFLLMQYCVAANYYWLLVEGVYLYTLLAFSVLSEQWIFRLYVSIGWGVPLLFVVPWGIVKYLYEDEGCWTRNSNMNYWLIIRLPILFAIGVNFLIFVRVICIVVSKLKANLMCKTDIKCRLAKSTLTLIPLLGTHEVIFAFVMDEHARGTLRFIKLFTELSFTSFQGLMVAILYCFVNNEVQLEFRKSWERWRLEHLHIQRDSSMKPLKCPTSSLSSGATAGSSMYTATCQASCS
structure (smiles),measurement,setting,value
CC(C)C[C@H](NC(=O)[C@H](Cc1c[nH]c2ccccc12)NC(=O)[C@H](C)NC(=O)[C@@H](NC(=O)[C@H](Cc1ccccc1)NC(=O)[C@H](CCC(=O)O)NC(=O)[C@H](C)NC(=O)[C@H](C)NC(=O)[C@H](CCCCN)NC(=O)[C@H](CCCCN)NC(=O)C(C)(C)NC(=O)[C@H](CC(=O)O)NC(=O)[C@H](CC(C)C)NC(=O)[C@H](Cc1ccc(O)cc1)NC(=O)[C@H](CCCCN)NC(=O)[C@H](CO)NC(=O)[C@@H](NC(=O)[C@H](CC(=O)O)NC(=O)[C@H](CO)NC(=O)[C@@H](NC(=O)[C@H](Cc1ccccc1)NC(=O)[C@@H](NC(=O)CNC(=O)[C@H](Cc1c[nH]cn1)NC(=O)[C@H](CO)NC(=O)[C@@H](N)Cc1ccc(O)cc1)[C@@H](C)O)[C@@H](C)O)C(C)C)C(C)C)C(=O)N[C@@H](CC(C)C)C(=O)N[C@@H](CCC(=O)O)C(=O)N[C@@H](CCC(=O)O)C(=O)O [SEQ ID NO: 2] (H-YSHGTFTSDVSKYLD[Aib]KKAAEFVAWLLEE-OH; N-terminus assumed),Blood glucose levels after dosing,"male C57BL6 mice; 1 μg/kg subcutaneously, 0 minutes",132.0 ± 4.1 mg/dL
same,Blood glucose levels after dosing,"male C57BL6 mice; 1 μg/kg subcutaneously, 15 minutes",203.0 ± 15.8 mg/dL
same,Blood glucose levels after dosing,"male C57BL6 mice; 1 μg/kg subcutaneously, 30 minutes",220.4 ± 21.4 mg/dL
same,Blood glucose levels after dosing,"male C57BL6 mice; 1 μg/kg subcutaneously, 60 minutes",171.6 ± 10.2 mg/dL
same,Blood glucose levels after dosing,"male C57BL6 mice; 1 μg/kg subcutaneously, 120 minutes",168.9 ± 3.7 mg/dL
same,Blood glucose levels after dosing,"male C57BL6 mice; 3 μg/kg subcutaneously, 0 minutes",147.8 ± 2.6 mg/dL
same,Blood glucose levels after dosing,"male C57BL6 mice; 3 μg/kg subcutaneously, 15 minutes",246.4 ± 13.1 mg/dL
same,Blood glucose levels after dosing,"male C57BL6 mice; 3 μg/kg subcutaneously, 30 minutes",274.9 ± 16.3 mg/dL
same,Blood glucose levels after dosing,"male C57BL6 mice; 3 μg/kg subcutaneously, 60 minutes",201.1 ± 13.2 mg/dL
same,Blood glucose levels after dosing,"male C57BL6 mice; 3 μg/kg subcutaneously, 120 minutes",172.8 ± 8.9 mg/dL
same,Blood glucose levels after dosing,"male C57BL6 mice; 10 μg/kg subcutaneously, 0 minutes",146.0 ± 8.2 mg/dL
same,Blood glucose levels after dosing,"male C57BL6 mice; 10 μg/kg subcutaneously, 15 minutes",257.3 ± 7.7 mg/dL
same,Blood glucose levels after dosing,"male C57BL6 mice; 10 μg/kg subcutaneously, 30 minutes",294.0 ± 13.3 mg/dL
same,Blood glucose levels after dosing,"male C57BL6 mice; 10 μg/kg subcutaneously, 60 minutes",222.2 ± 13.9 mg/dL
same,Blood glucose levels after dosing,"male C57BL6 mice; 10 μg/kg subcutaneously, 120 minutes",147.0 ± 6.7 mg/dL
same,ED50 (blood glucose increase),"male C57BL6 mice; calculated on the 30 minute glucose measurements, 10 μg/kg taken as maximum, subcutaneous",3.34 µg/kg
same,Ki,[1],3.2 ± 0.76 nM
same,Fibrillation as measured by the Thioflavin T binding assay,[2]; [7],did not demonstrate significant fibrillation
same,Physical stability by visual assessment and Thioflavin T binding,[2]; [7],maintains physical stability
same,Thioflavin T fluorescence,"[2]; Buffer 1 (20 mM Tris-HCl pH 8.0), t = 0 h",193.9 flurescence units
same,Thioflavin T fluorescence,"[2]; Buffer 1 (20 mM Tris-HCl pH 8.0), t = 40 h",201.6 flurescence units
same,Thioflavin T fluorescence,"[2]; Buffer 1 (20 mM Tris-HCl pH 8.0), t = 120 h",226.1 flurescence units
same,Thioflavin T fluorescence,"[2]; Buffer 2 (20 mM Tris-HCl, 150 nM NaCl, pH 8.0), t = 0 h",182.2 flurescence units
same,Thioflavin T fluorescence,"[2]; Buffer 2 (20 mM Tris-HCl, 150 nM NaCl, pH 8.0), t = 40 h",210.1 flurescence units
same,Thioflavin T fluorescence,"[2]; Buffer 2 (20 mM Tris-HCl, 150 nM NaCl, pH 8.0), t = 120 h",213.6 flurescence units
same,Thioflavin T fluorescence,"[2]; Buffer 3 (20 mM Tris-HCl, 300 mM sucrose, pH 8.0), t = 0 h",263.3 flurescence units
same,Thioflavin T fluorescence,"[2]; Buffer 3 (20 mM Tris-HCl, 300 mM sucrose, pH 8.0), t = 40 h",297.0 flurescence units
same,Thioflavin T fluorescence,"[2]; Buffer 3 (20 mM Tris-HCl, 300 mM sucrose, pH 8.0), t = 120 h",310.9 flurescence units
same,Thioflavin T fluorescence,"[2]; Buffer 4 (20 mM Tris-HCl, 300 mM sorbitol, pH 8.0), t = 0 h",260.9 flurescence units
same,Thioflavin T fluorescence,"[2]; Buffer 4 (20 mM Tris-HCl, 300 mM sorbitol, pH 8.0), t = 40 h",285.1 flurescence units
same,Thioflavin T fluorescence,"[2]; Buffer 4 (20 mM Tris-HCl, 300 mM sorbitol, pH 8.0), t = 120 h",311.2 flurescence units
same,Thioflavin T fluorescence,"[2]; Buffer 5 (20 mM Tris-HCl, 0.02% Tween 80, pH 8.0), t = 0 h",251.7 flurescence units
same,Thioflavin T fluorescence,"[2]; Buffer 5 (20 mM Tris-HCl, 0.02% Tween 80, pH 8.0), t = 40 h",281.7 flurescence units
same,Thioflavin T fluorescence,"[2]; Buffer 5 (20 mM Tris-HCl, 0.02% Tween 80, pH 8.0), t = 120 h",306.8 flurescence units
same,4° C. % Main Peak 4 wk,"[3]; RP-HPLC, pH 8, 4° C., 4 wk",95.94%
same,30° C. % Main Peak 4 wk,"[3]; RP-HPLC, pH 8, 30° C., 4 wk",93.73%
same,40° C. % Main Peak 4 wk,"[3]; RP-HPLC, pH 8, 40° C., 4 wk",89.54%
same,% Main Peak Day 0,"[3]; RP-HPLC, pH 8, day 0",96.26%
same,Solubility by visual assessment and RP-HPLC,[3]; pH 8,maintains good solubility
same,RP-HPLC main peak change,"[3]; pH 8, 4-wk 30° C. vs 4° C.",< 2.5%
same,RP-HPLC main peak change,"[3]; pH 8, 4-wk 40° C. vs 4° C.",< 7%
same,30° C. vs 4° C. Recovery 4 wk,"[3]; pH 8, total peak area, 4 wk",101%
same,40° C. vs 4° C. Recovery 4 wk,"[3]; pH 8, total peak area, 4 wk",99%
same,EC50,[4],0.0658 ± 0.0167 nM
same,Ki,[5],> 3.38 µM
same,Ki,human GIP-R,> 2240 nM
same,Ki,[6],8.63 ± 0.71 nM
